The values that follow come from US9212146B2, “Substituted pyridazinones for the treatment of tumors” (SHANGHAI INSTITUTE OF MATERIA MEDICA, CHINESE ACADEMY OF …, priority 2008, dated 2015).

The structures appear in SMILES notation. Where two headings read alike, the source gives them in different places.

For data set [1], the system named is human liver cancer cells Bel-7402 transplanted tumor. Type of data set: in vivo. To be noted: for Quantity of Animals Whose Tumors Vanished / Inhibition Rate (%) / Tumor Volume (mm^3): PO; for Quantity of Animals Whose Tumors Vanished: 5 animals per group; for Inhibition Rate (%) / Tumor Volume (mm^3): Bel-7402 on nude mice; for tumors vanished (animals/group): at the 11th day; for tumors vanished (animals/group) / toxicity / survivability of mice: intragastrically once a day for 11 days; for recrudescence of tumors: at the end of the experiment (17th day); for toxicity / survivability of mice: nude mice. The text has this: Name and lot number: YHHU-744, a white powder, lot No.: No. c001471-106; YHHU-755, a white powder, lot No.: No. c001471-102; YHHU-756, a white powder, lot No.: No. c00147-106; YHHU-759, a white powder, lot No.: No. c001471-102; YHHU-776, a white powder, lot No.: No. c001471-107. Sorafenib was used as a positive control.
Formulation: YHHU-744, YHHU-755, YHHU-756, YHHU-759, YHHU-776 and the positive control were each diluted with 0.1% Tween-80 and distilled water to a desired concentration.
BALB/cA nude mice, 6-7 weeks old, ♀, were purchased from Shanghai SLAC Laboratory Animal Co. LTD. Certificate No.: SCXK (Shanghai) 2007-0005. Habitat: SPF level.
Human liver cancer cells Bel-7402 were inoculated on nude mice subcutaneously. After the tumor grew up to 300-450 mm^3, animals were grouped randomly (d0). The tumor volume was measured 2-3 times each week and the weights of mice were recorded. The tumor volume was calculated according to as the following equation. V=½×a×b^2 wherein, a and b are length and width, respectively. […]

Data set [2] has as its system human hepatoma cell line Bel-7402. Description: SRB proliferation assay, Bel-7402. The class given is cell-based. How it is done:
(§1) Protocol: the antineoplasmic activities in vitro of the compounds were assayed by a Sulforhodamine B (SRB) protocol. Tumor cells were cultivated at 37 under 5% CO2 in a RPMI 1640 medium or a DMEM medium (Gibco) containing 10% fetal bovine serum. Tumor cells were inoculated on a 96-well plate with a concentration of 0.4-1.0×10^4 cells per well according to the cell types. 24 hours later, the target compounds diluted 10 times were added, each compound having at least 5 concentrations. After treated by the compounds for 72 hours, the culture media were discarded, and the cells were fixed by 10% cold trichloroacetic acid, and then stained by Sulforhodamine B (SRB) solution. The uncombined SRB was washed off, and the SRB combined with protein was dissolved with Tris. OD values were recorded at 515 nm on an ELISA Reader, and the cell growth inhibition rate was calculated according to following equation: Inhibition rate=(ODcontrol−ODexperimental)/ODcontrol×100%
IC50 (50% inhibitory concentration) was calculated by using Logit method based on the inhibition rates at various concentration, and the results are shown in tables 1 and 2.
The following cell lines were used: human hepatocarcinoma cell line […]; ovarian cancer cell line SK-OV-3; human breast cancer cell line MDA-MB-231; human renal carcinoma cell line A498; colon adenocarcinoma cell line HT-29; non-small cell lung cancer cell line NCI-H460; lung adenocarcinoma cell line A549; human colon cancer cell line SW-620; human hepatoma cell line Bel-7402; human breast carcinoma cell line SK-BR-3; and human umbilical vein endothelial cells (HUVEC).
On the technique in general: The SRB assay estimates cell density from bound dye.

For data set [3], the system named is human liver cancer cells SMMC-7721 transplanted tumor. Description: SMMC-7721 transplanted tumor on nude mice. Type of data set: in vivo. To be noted: intragastrically once a day for 10 days; subcutaneous tumor on nude mice. As for the experimental part: Experimental procedure: BALB/cA nude mice, 6-7 weeks old, ♀, were purchased from Shanghai SLAC Laboratory Animal Co. LTD. Certificate No.: SCXK (Shanghai) 2007-0005. Habitat: SPF level. The compounds were diluted with 0.5% CMC containing 0.1% Tween-80 to a desired concentration. Human liver cancer cells SMMC-7721 were inoculated on nude mice subcutaneously. After the tumor grew up to 100-200 mm^3, animals were grouped randomly (d0). Mice were consecutively administered with compounds intragastrically once a day for 10 days. The tumor volume was measured 2-3 times each week and the weights of mice were recorded. The tumor volume (V) was calculated according to the following equation: V=½×a×b^2, wherein, a and b are length and width, respectively.

Data set [4] has as its system human breast carcinoma cell line SK-BR-3. Description: SRB proliferation assay, SK-BR-3. The class given is cell-based. To be noted: SK-BR-3, breast carcinoma, 72 hours. As for the experimental part: as §1
(§2) IC50 (50% inhibitory concentration) was calculated by using Logit method based on the inhibition rates at various concentration, and the results are shown in tables 1 and 2. […]

Data set [5] relates to human hepatocarcinoma cell line SIMM-7721. The data set is described as follows: SRB proliferation assay, SIMM-7721. Type of data set: cell-based. Conditions: SIMM-7721, liver cancer, 72 hours. As for the experimental part: as §1, §2
Data set [6] concerns human breast cancer cell line MDA-MB-231. Description: SRB proliferation assay, MDA-MB-231. Type of data set: cell-based. To be noted: MDA-MB-231, breast carcinoma, 72 hours. As for the experimental part:
as §1, §2

The subject of data set [7] is colon adenocarcinoma cell line HT-29. Description: SRB proliferation assay, HT-29. Type of data set: cell-based. To be noted: Homo sapiens, HT-29, colon carcinoma, 72 hours. As for the experimental part: as §1, §2
For data set [8], the system named is non-small cell lung cancer cell line NCI-H460. The data set is described as follows: SRB proliferation assay, NCI-H460. Type of data set: cell-based. Conditions: Homo sapiens, 72 hours. How it is done: as §1, §2
Another data set relates to liver cancer of animals. The data set is described as follows: Curative effect against liver cancer of animals in vivo.
In data set [9] the test system is ovarian cancer cell line SK-OV-3. The data set is described as follows: SRB proliferation assay, SK-OV-3. Type of data set: cell-based. To be noted: Homo sapiens, 72 hours. As for the experimental part: as §1, §2
The subject of data set [10] is human umbilical vein endothelial cells (HUVEC). The data set is described as follows: SRB proliferation assay, HUVEC. Type of data set: cell-based. Conditions: human umbilical vein endothelial cells (normal cells), 72 hours. How it is done:
as §1, §2

For data set [11], the system named is human renal carcinoma cell line A498. The data set is described as follows: SRB proliferation assay, A498. Type of data set: cell-based. Conditions: 72 hours. As for the experimental part:
as §1, §2

In data set [12] the test system is human colon cancer cell line SW-620. The data set is described as follows: SRB proliferation assay, SW-620. Type of data set: cell-based. Conditions: SW-620, colon carcinoma, 72 hours. How it is done:
as §1, §2

Setting [13] is: Homo sapiens, Bel-7402, 72 h, BEL-7402 cultivated in vitro, given as bounds, read-out: The Inhibition Activities for Human Liver Cancer Cells BEL-7402 (IC50).

Regarding `O=c1ccc(-c2ccc(N3CCCCC3)c(C(F)(F)F)c2)n[nH]1` [YHHU-755], in data set [1] (100 mg/kg, QDx11), the “Quantity of Animals Whose Tumors Vanished” value (“Quantity” for short) came to 5, the “Inhibition Rate (%)” value was found to be 100% and the “Tumor Volume (mm^3)” value came to 350.4 mm^3. Moreover, in [1], the “tumors vanished (animals/group)” value is listed as 5/5, the recrudescence of tumors entry was “no recrudescence was observed” and the “toxicity / survivability of mice” value is “no significant toxicity was observed”. The IC50 in data set [2] (setting [13]) is less than 10 nM.
Turning to `O=c1ccc(-c2ccc(N3CCOCC3)c(C(F)(F)F)c2)n[nH]1` [YHHU-759], in data set [1] (100 mg/kg, QDx11), the “Quantity” value is on record as 5, the “Inhibition Rate (%)” value was 100% and the “Tumor Volume (mm^3)” value worked out at 367.9 mm^3. Besides, in data set [1], the “tumors vanished (animals/group)” value is reported as 5/5, the recrudescence of tumors result is listed as “no recrudescence was observed” and the “toxicity / survivability of mice” value is reported as “no significant toxicity was observed”. Further, the “growth of SMMC-7721 transplanted tumor” value in [3] is listed as “significantly inhibited the growth”. Besides, in data set [2] (setting [13]), the IC50 was less than 10 nM.
Regarding `CCNc1ccc(-c2ccc(=O)[nH]n2)cc1C(F)(F)F` [YHHU-744], in data set [1] (100 mg/kg, QDx11), the “Quantity” value is listed as 4, the “Inhibition Rate (%)” value is given as 98% and the “Tumor Volume (mm^3)” value is listed as 343.7 mm^3. In data set [1], the “tumors vanished (animals/group)” value is listed as 4/5 and the “toxicity / survivability of mice” value was “no significant toxicity was observed”. The IC50 in data set [2] (setting [13]) was less than 10 nM.
In the case of `O=c1ccc(-c2ccc(N3CCC(O)CC3)c(C(F)(F)F)c2)n[nH]1` [YHHU-776], in data set [1] (100 mg/kg, QDx11), the “Quantity” value was 5, the “Inhibition Rate (%)” value turned out to be 100% and the “Tumor Volume (mm^3)” value came out at 338.2 mm^3. In data set [1], the “tumors vanished (animals/group)” value was 5/5, the recrudescence of tumors entry is reported as “no recrudescence was observed” and the “toxicity / survivability of mice” value was “no significant toxicity was observed”. In addition, the IC50 in [2] (setting [13]) is less than 10 nM.
For the compound `CCOC(=O)C1CCCN(c2ccc(-c3ccc(=O)[nH]n3)cc2C(F)(F)F)C1` (stereo not shown) [YHHU-671], the IC50 in data set [2] (setting [13]) was less than 10 nM.
On the same count and under the same terms, as for `CC(C)(C)OC(=O)N1CCN(c2ccc(-c3ccc(=O)[nH]n3)cc2C(F)(F)F)CC1` [YHHU-678], the figure is less than 10 nM; as for `CC(C)CCOc1ccc(-c2ccc(=O)[nH]n2)cc1C(F)(F)F` [YHHU-772], less than 100 nM; as for `COC(CNc1ccc(-c2ccc(=O)[nH]n2)cc1C(F)(F)F)OC` [YHHU-774], less than 100 nM.
The same measure, in the same setting: as for `O=c1ccc(-c2ccc(OCCOCCO)c(C(F)(F)F)c2)n[nH]1` [YHHU-582], the figure is less than 100 nM; as for `CC(Oc1ccc(-c2ccc(=O)[nH]n2)cc1C(F)(F)F)N1CCCCC1` (stereo not shown) [YHHU-597], less than 100 nM.
`CNc1ccc(-c2ccc(=O)[nH]n2)cc1C(F)(F)F` [YHHU-758]: the IC50 in data set [2] (setting [13]) is less than 10 nM.
Same read-out and setting: as for `CCOc1ccc(-c2ccc(=O)[nH]n2)cc1C(F)(F)F` [YHHU-578], the figure is less than 100 nM.
Regarding `CNC(=O)c1cc(Oc2ccc(NC(=O)Nc3ccc(Cl)c(C(F)(F)F)c3)cc2)ccn1` [Sorafenib, reference compound], in data set [1] (60 mg/kg, QDx16), the “Quantity” value stood at 0, the “Inhibition Rate (%)” value came to 50% and the “Tumor Volume (mm^3)” value was 279.8 mm^3.
Take `CC(C)N(c1ccc(-c2ccc(=O)[nH]n2)cc1C(F)(F)F)C(C)C` [YHHU-688]: the IC50 in data set [2] (setting [13]) was less than 10 nM.
As to `COc1ccc(-c2ccc(=O)[nH]n2)cc1C(F)(F)F` [YHHU-546], in data set [2] (BEL-7402 cultivated in vitro, 72 hours, given as bounds, read-out: The Inhibition Activities for Human Liver Cancer Cells BEL-7402 (IC50)), the IC50 is less than 100 nM.
For `CN(C)[C@@H]1CCN(c2ccc(-c3ccc(=O)[nH]n3)cc2C(F)(F)F)C1` [YHHU-683], in data set [2] (setting [13]), the IC50 was less than 100 nM.
For `CN(C)CCNc1ccc(-c2ccc(=O)[nH]n2)cc1C(F)(F)F` [YHHU-745], the IC50 in [2] (setting [13]) was greater than 1000 nM.
Turning to `O=c1ccc(-c2ccc(N3CCCC3)c(C(F)(F)F)c2)n[nH]1` [YHHU-646], the IC50 in data set [4] is 7500 nM; in data set [5] it was less than 100 nM; in data set [6], greater than 20000 nM; in data set [7], 6300 nM; in [8], 24100 nM; in data set [2] (setting [13]), less than 10 nM. Also, the IC50 in [2] (Homo sapiens, Bel-7402, 72 h, Bel-7402, liver cancer, Table 1, read-out: IC50) stood at 0.7 nM; in data set [9], 3 nM; in data set [10], 30 nM; in data set [11], 4120 nM; in [12], 5800 nM. The “curative effect against liver cancer of animals in vivo” value in the data set with liver cancer of animals is “significant curative effect”.

As usually defined, the IC50 is the point on the concentration scale where inhibition reaches its midpoint.
